Among the data in patent US8541588B2, “Sulfonamide derivatives” (Pfizer Limited, priority 2009, dated 2013) are IC50 values, retold here.

Where “and” joins values, the source holds several entries; their conditions need not be identical. Equal values may be shown once.

The target in one test is T1, Nav1.7 (or SCN9A) channel; HEK cells stably transfected with hSCN9A (Homo sapiens, UniProt Q15858).
T1 construct: expressed in transfected cells
T1 sequence (Q15858 whole entry): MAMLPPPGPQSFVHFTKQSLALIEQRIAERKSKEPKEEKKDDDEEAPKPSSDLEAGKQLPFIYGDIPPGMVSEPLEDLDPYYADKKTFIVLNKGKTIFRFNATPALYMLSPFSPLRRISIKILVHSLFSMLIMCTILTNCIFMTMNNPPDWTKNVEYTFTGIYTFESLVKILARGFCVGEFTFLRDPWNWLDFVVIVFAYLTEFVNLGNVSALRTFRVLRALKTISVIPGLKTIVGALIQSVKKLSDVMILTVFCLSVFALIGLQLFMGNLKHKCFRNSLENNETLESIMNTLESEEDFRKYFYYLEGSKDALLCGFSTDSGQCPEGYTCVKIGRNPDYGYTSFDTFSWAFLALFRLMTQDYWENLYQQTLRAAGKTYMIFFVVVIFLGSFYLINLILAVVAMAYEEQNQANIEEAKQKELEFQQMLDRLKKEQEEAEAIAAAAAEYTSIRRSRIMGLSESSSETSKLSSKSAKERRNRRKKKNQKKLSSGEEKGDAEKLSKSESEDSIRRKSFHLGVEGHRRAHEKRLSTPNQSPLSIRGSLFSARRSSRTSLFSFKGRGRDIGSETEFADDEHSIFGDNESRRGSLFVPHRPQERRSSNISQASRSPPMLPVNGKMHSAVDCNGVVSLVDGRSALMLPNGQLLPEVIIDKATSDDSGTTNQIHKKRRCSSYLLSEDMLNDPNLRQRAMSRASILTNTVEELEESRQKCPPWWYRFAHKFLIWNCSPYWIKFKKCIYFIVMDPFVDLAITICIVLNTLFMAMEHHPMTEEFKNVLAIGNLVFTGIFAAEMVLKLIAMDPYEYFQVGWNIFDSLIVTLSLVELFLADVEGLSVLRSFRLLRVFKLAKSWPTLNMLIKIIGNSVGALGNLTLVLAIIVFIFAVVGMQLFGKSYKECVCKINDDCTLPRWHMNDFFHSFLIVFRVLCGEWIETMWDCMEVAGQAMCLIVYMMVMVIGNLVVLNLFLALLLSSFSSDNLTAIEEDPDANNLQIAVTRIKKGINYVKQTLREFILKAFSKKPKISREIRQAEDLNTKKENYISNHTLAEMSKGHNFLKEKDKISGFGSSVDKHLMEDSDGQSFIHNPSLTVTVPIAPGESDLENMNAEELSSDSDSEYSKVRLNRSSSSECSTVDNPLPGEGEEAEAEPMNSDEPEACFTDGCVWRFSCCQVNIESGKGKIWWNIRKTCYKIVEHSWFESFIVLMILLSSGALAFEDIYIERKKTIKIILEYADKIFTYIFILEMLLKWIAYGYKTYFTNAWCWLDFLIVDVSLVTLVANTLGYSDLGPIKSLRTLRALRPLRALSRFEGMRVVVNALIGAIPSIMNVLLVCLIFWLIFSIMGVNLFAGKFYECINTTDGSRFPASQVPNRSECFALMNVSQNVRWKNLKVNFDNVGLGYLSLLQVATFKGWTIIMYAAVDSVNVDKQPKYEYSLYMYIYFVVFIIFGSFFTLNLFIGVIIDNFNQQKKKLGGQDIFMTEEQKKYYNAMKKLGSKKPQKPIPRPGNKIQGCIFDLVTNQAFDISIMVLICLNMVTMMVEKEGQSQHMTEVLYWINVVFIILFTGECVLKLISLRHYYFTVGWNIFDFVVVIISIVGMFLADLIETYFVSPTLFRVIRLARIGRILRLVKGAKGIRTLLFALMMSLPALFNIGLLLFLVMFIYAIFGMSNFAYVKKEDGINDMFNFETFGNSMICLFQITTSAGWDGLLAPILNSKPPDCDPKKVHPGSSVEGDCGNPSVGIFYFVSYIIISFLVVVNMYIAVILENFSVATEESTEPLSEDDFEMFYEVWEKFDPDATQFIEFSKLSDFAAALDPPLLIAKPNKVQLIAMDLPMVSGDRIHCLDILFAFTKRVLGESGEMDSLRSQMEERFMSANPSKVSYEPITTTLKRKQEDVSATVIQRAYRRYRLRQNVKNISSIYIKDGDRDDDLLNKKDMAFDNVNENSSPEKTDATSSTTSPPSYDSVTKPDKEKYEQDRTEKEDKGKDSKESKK
The experiment in a line: Nav1.7 block, PatchXpress 7000 automated whole-cell voltage clamp, estimated IC50 (EIC50). As to conditions: PatchXpress platform; hSCN9A HEK cells held at V1/2 of inactivation; estimated IC50. In kind it is cell-based.
The IC50 is the midpoint of a concentration-inhibition curve. As for `COc1ccc(-n2cc(Oc3ccc(S(=O)(=O)Nc4ncns4)cc3C#N)c(C(C)C)n2)cc1` [Example 65, 3-cyano-4-{[3-isopropyl-1-(4-methoxyphenyl)-1H-pyrazol-4-yl]oxy}-N-1,2,4-thiadiazol-5-ylbenzenesulfonamide], the 50% inhibitory concentration (IC50) is 12200 nM.

`N#Cc1cc(S(=O)(=O)Nc2nccs2)ccc1Oc1cc(C2CC2)nn1-c1ccccn1` [Example 191, 3-cyano-4-(5-cyclopropyl-2-pyridin-2-yl-2H-pyrazol-3-yloxy)-N-thiazol-2-yl-benzenesulfonamide]: the IC50 is >10000 nM.

Consider `Cc1nn(C)c(C)c1Cc1ccc(Oc2ccc(S(=O)(=O)Nc3nccs3)cc2F)cc1` [Example 118, 3-fluoro-N-1,3-thiazol-2-yl-4-{4-[(1,3,5-trimethyl-1H-pyrazol-4-yl)methyl]phenoxy}benzenesulfonamide], for which the concentration for half-maximal inhibition (IC50) was 18400 nM.

As to `Cn1ncc(F)c1-c1cc(Cl)ccc1Oc1ccc(S(=O)(=O)Nc2nccs2)cc1C#N` [Example 196, 4-[4-Chloro-2-(4-fluoro-2-methyl-2H-pyrazol-3-yl)-phenoxy]-3-cyano-N-thiazol-2-yl-benzenesulfonamide], the IC50 is 30 nM.

As to `Cc1cc(Oc2ccc(S(=O)(=O)Nc3nccs3)cc2)n(-c2ccccc2)n1` [Example 277, 4-(5-methyl-2-phenyl-2H-pyrazol-3-yloxy)-N-thiazol-2-yl-benzenesulfonamide], the half-inhibitory concentration (IC50) was 1110 nM.

Consider `CN(C)C(=O)Cn1nccc1-c1cc(F)ccc1Oc1ccc(S(=O)(=O)Nc2nccs2)cc1F` [Example 239, 2-(5-(5-fluoro-2-(2-fluoro-4-(N-thiazol-2-ylsulfamoyl)phenoxy)phenyl)-1H-pyrazol-1-yl)-N,N-dimethylacetamide], for which the IC50 is 1900 nM.

On to `O=S(=O)(Nc1nccs1)c1ccc(Oc2cc(Cc3ccc(Cl)cc3)n[nH]2)c(F)c1` [Example 243, 4-(3-(4-chlorobenzyl)-1H-pyrazol-5-yloxy)-3-fluoro-N-(thiazol-2-yl)benzenesulfonamide], for which the IC50 is 3860 nM.

Turning to `N#Cc1cc(S(=O)(=O)Nc2ncns2)ccc1Oc1cc(Cc2ccc(Cl)cc2)nn1CCO` [Example 94, 4-{[3-(4-chlorobenzyl)-1-(2-hydroxyethyl)-1H-pyrazol-5-yl]oxy}-3-cyano-N-1,2,4-thiadiazol-5-ylbenzenesulfonamide], the IC50 is 2180 nM.

On to `Cc1nc(-c2ccccc2Oc2ccc(S(=O)(=O)Nc3nccs3)cc2F)cs1` [Example 130, 3-fluoro-4-[2-(2-methyl-1,3-thiazol-4-yl)phenoxy]-N-1,3-thiazol-2-ylbenzenesulfonamide], for which the IC50 is 9190 nM.

`N#Cc1cc(S(=O)(=O)Nc2cnsc2)ccc1Oc1ccccc1-c1ccccc1` [Example 99, 4-(biphenyl-2-yloxy)-3-cyano-N-isothiazol-4-ylbenzenesulfonamide]: the IC50 was >10000 nM and 24900 nM.

For the compound `CN1C(=O)CCC1c1ccccc1Oc1ccc(S(=O)(=O)Nc2ncns2)cc1C#N` (stereo not shown) [Example 69, 3-cyano-4-[2-(1-methyl-5-oxopyrrolidin-2-yl)phenoxy]-N-1,2,4-thiadiazol-5-ylbenzenesulfonamide], the IC50 was 36100 nM.

Still in this test, the particulars now being: estimated IC50; hSCN9A HEK cells, PatchXpress platform; Examples 283-814.
Regarding `O=S(=O)(Nc1ncns1)c1cc(F)c(Oc2ccc(C(F)(F)F)cc2-c2cn[nH]c2)cc1F` [Example 790, 2,5-difluoro-4-[2-(1H-pyrazol-4-yl)-4-(trifluoromethyl)phenoxy]-N-1,2,4-thiadiazol-5-ylbenzenesulfonamide], the IC50 was 1.2 nM.

Consider `CC(C)c1cc(-c2cc(C(F)(F)F)nn2C)ccc1Oc1ccc(S(=O)(=O)Nc2nccs2)cc1C#N` [Example 354, 3-cyano-4-{2-isopropyl-4-[1-methyl-3-(trifluoromethyl)-1H-pyrazol-5-yl]phenoxy}-N-1,3-thiazol-2-ylbenzenesulfonamide], for which the IC50 was 180 nM.

Regarding `N#Cc1cc(S(=O)(=O)Nc2ncns2)ccc1Oc1ccc(Cl)cc1-c1ccnc(N2CCNCC2)c1` [Example 736, 4-[4-chloro-2-(2-piperazin-1-ylpyridin-4-yl)phenoxy]-3-cyano-N-1,2,4-thiadiazol-5-ylbenzenesulfonamide], the IC50 is 2.7 nM.

On to `N#Cc1cc(S(=O)(=O)Nc2ncns2)ccc1Oc1ccc(Cl)cc1-c1ccnn1C1CNC1` [Example 728, 4-[2-(1-azetidin-3-yl-1H-pyrazol-5-yl)-4-chlorophenoxy]-3-cyano-N-1,2,4-thiadiazol-5-ylbenzenesulfonamide], for which the IC50 is 4.8 nM.

For the compound `CCc1nnc(C)n1-c1ccc(Oc2ccc(S(=O)(=O)Nc3ccc(F)cn3)cc2C#N)cc1` [Example 568, 3-cyano-4-[4-(3-ethyl-5-methyl-4H-1,2,4-triazol-4-yl)phenoxy]-N-(5-fluoropyridin-2-yl)benzenesulfonamide], the IC50 is >3000 nM.

In the case of `N#Cc1cc(S(=O)(=O)Nc2nccs2)ccc1Oc1ccc(-n2cccn2)cc1C(F)(F)F` [Example 491, 3-cyano-4-[4-(1H-pyrazol-1-yl)-2-(trifluoromethyl)phenoxy]-N-1,3-thiazol-2-ylbenzenesulfonamide], the IC50 is >1000 nM.

Regarding `O=S(=O)(Nc1ncns1)c1cc(Cl)c(Oc2ccc(Cl)cc2C2CNC2)cc1F` [Example 619, 4-(2-azetidin-3-yl-4-chlorophenoxy)-5-chloro-2-fluoro-N-1,2,4-thiadiazol-5-ylbenzenesulfonamide], the half-inhibitory concentration (IC50) is 45 nM.

As for `O=S(=O)(Nc1cscn1)c1cc(Cl)c(Oc2ccc(Cl)cc2C2CCNCC2)cc1F` [Example 655, 5-chloro-4-(4-chloro-2-piperidin-4-ylphenoxy)-2-fluoro-N-1,3-thiazol-4-ylbenzenesulfonamide], the IC50 was 49 nM.

Consider `O=S(=O)(Nc1ncns1)c1cc(F)c(Oc2ccc(C(F)(F)F)cc2-c2ccnnc2)cc1F` [Example 805, 2,5-difluoro-4-[2-pyridazin-4-yl-4-(trifluoromethyl)phenoxy]-N-1,2,4-thiadiazol-5-ylbenzenesulfonamide], for which the half-maximal inhibitory concentration (IC50) is 6.2 nM.

`Cc1coc(-c2ccc(Oc3ccc(S(=O)(=O)Nc4nccs4)cc3C#N)cc2)n1` [Example 317, 3-cyano-4-[4-(4-methyl-1,3-oxazol-2-yl)phenoxy]-N-1,3-thiazol-2-ylbenzenesulfonamide]: the IC50 was 2200 nM.

With `O=S(=O)(Nc1cscn1)c1cc(F)c(Oc2ccc(Cl)cc2C2CNC2)cc1F` [Example 604, 4-(2-azetidin-3-yl-4-chlorophenoxy)-2,5-difluoro-N-1,3-thiazol-4-ylbenzenesulfonamide], the half-inhibitory concentration (IC50) was 820 nM.

As to `CCn1nc(-c2ccc(Oc3ccc(S(=O)(=O)Nc4ncc(F)s4)cc3C#N)c(F)c2)cc1C(F)(F)F` [Example 540, 3-cyano-4-{4-[1-ethyl-5-(trifluoromethyl)-1H-pyrazol-3-yl]-2-fluorophenoxy}-N-(5-fluoro-1,3-thiazol-2-yl)benzenesulfonamide], the IC50 was 4000 nM.

Consider “4-[2-(2-aminopyridin-4-yl)-4-(trifluoromethoxy)phenoxy]-2,5-difluoro-N-1,2,4-thiadiazol-5-ylbenzenesulfonamide [Example 552]”, for which the half-inhibitory concentration (IC50) was 2.4 nM.

As to `N#Cc1cc(S(=O)(=O)Nc2nccs2)ccc1Oc1ccc(-n2cc(Cl)cn2)c(Cl)c1` [Example 384, 4-[3-chloro-4-(4-chloro-1H-pyrazol-1-yl)phenoxy]-3-cyano-N-1,3-thiazol-2-ylbenzenesulfonamide], the IC50 was 350 nM.

In the case of `Cn1nccc1-c1cc(Cl)ccc1Oc1cc(F)c(S(=O)(=O)Nc2cscn2)cc1F` [Example 606, 4-[4-chloro-2-(1-methyl-1H-pyrazol-5-yl)phenoxy]-2,5-difluoro-N-1,3-thiazol-4-ylbenzenesulfonamide], the IC50 is 130 nM.

In the case of `Cn1nccc1-c1cc(Cl)ccc1Oc1ncc(S(=O)(=O)Nc2nccs2)cc1C#N` [Example 739, 6-[4-chloro-2-(1-methyl-1H-pyrazol-5-yl)phenoxy]-5-cyano-N-1,3-azol-2-ylpyridine-3-sulfonamide], the IC50 was 150 nM.

Staying with this test, now noted: estimated IC50; hSCN9A HEK cells, PatchXpress platform; Examples 815-1040.
As to `O=S(=O)(Nc1nncs1)c1ccc(Oc2ccc(Cl)cc2-c2ccnnc2)c(C(F)(F)F)c1` [Example 1018, 4-(4-chloro-2-pyridazin-4-ylphenoxy)-N-1,3,4-thiadiazol-2-yl-3-(trifluoromethyl)benzenesulfonamide], the IC50 was 230 nM.

Regarding `O=S(=O)(Nc1ncns1)c1cc(F)c(Oc2ccc(Cl)cc2-c2ccnnc2)cc1F` [Example 879, 4-(4-chloro-2-pyridazin-4-ylphenoxy)-2,5-difluoro-N-1,2,4-thiadiazol-5-ylbenzenesulfonamide], the IC50 was 7 nM.

For `CN1CC(n2nccc2-c2cc(Cl)ccc2Oc2cc(F)c(S(=O)(=O)Nc3nncs3)cc2Cl)C1` [Example 884, 5-chloro-4-{4-chloro-2-[1-(1-methylazetidin-3-yl)-1H-pyrazol-5-yl]phenoxy}-2-fluoro-N-1,3,4-thiadiazol-2-ylbenzenesulfonamide], the IC50 was 36 nM.

As for `N#Cc1cc(S(=O)(=O)Nc2ncns2)ccc1Oc1ccc(Cl)cc1-c1ccc(CC(=O)O)cc1` [Example 1001, (5′-chloro-2′-{2-cyano-4-[(1,2,4-thiadiazol-5-ylamino)sulfonyl]phenoxy}biphenyl-4-yl)acetic acid], the IC50 was 820 nM.

Turning to `Cc1nocc1-c1cc(Cl)ccc1Oc1ccc(S(=O)(=O)Nc2ncns2)cc1C#N` [Example 961, 4-[4-chloro-2-(3-methylisoxazol-4-yl)phenoxy]-3-cyano-N-1,2,4-thiadiazol-5-ylbenzenesulfonamide], the IC50 was 7.9 nM.

With `Nc1n[nH]cc1-c1cc(Cl)ccc1Oc1cc(F)c(S(=O)(=O)Nc2cccnn2)cc1Cl` [Example 1038, 4-[2-(3-amino-1H-pyrazol-4-yl)-4-chlorophenoxy]-5-chloro-2-fluoro-N-pyridazin-3-ylbenzenesulfonamide], the IC50 is 34 nM.

Regarding `Nc1[nH]ncc1-c1cc(Cl)ccc1Oc1ccc(S(=O)(=O)Nc2cscn2)cc1Cl` [Example 912, 4-[2-(5-amino-1H-pyrazol-4-yl)-4-chlorophenoxy]-3-chloro-N-1,3-thiazol-4-ylbenzenesulfonamide], the IC50 is 14 nM.
